Data: patent EP1082099B1, “SURFACTANT FOR USE IN EXTERNAL PREPARATIONS FOR SKIN AND EXTERNAL PREPARATION FOR SKIN CONTAINING THE SAME” (Showa Denko K K, priority 1998, dated 1999)

How the values were obtained:
[1] = test system: three-dimensional skin model; assay: Skin irritation test: MTT cytotoxicity on three-dimensional cultured skin model; assay type: cell-based; conditions: test substance in PBS pH 7, 1 hour exposure, 16 hours incubation, read from graph
Experimental: Using a three-dimensional skin model (trade name: Three-dimensional cultured skin model, manufactured by Gunze), skin irritation tests were performed. […] The test substances were adjusted with PBS (Phosphate Buffer Saline, pH 7) so that they were in various concentrations. To the thus-adjusted test substances was exposed the skin model for 1 hour. Thereafter, the test substances were washed and incubated for 16 hours in a medium attached to the above-described three-dimensional skin model. After the incubation, a solution of MTT (3-(4,5-dimethylthiazol-2-yl)-2,5-diphenyltetrazolium bromide) was added and pigments were extracted with isopropanol rendered acidic with hydrochloric acid, followed by measurement of absorbance at a wavelength of 570 nm. […] This value was called B. The MTT solution was added to PBS and extraction was performed similarly. Absorbance of the extract measured at a wavelength of 570 nm was named C. From these values was calculated cytotoxicity. Calculation was made according to the following equation. Cytotoxicity (%) = (1-(A-c)/(B-C)) x 100 [formula]
Plotting the concentration of a test substance on the axis of abscissa and cytotoxicity on the axis of ordinate, a graph was obtained, from which the concentration of a test compound at 50% cytotoxicity was read.

[2] = Skin penetration test of methylparaben through hairless mouse skin (two-chamber); assay type: in vitro ADME; conditions: Example 2; donor side phosphate buffer pH 7 with stated composition; after 5 hours
Experimental: One (donor side) of two chambers separated by a hairless mouse skin was filled with a phosphate buffer (pH 7) having dissolved therein a substance having the composition described in Table 3 and the other (receiver side) was filled with a phosphate buffer solution (pH 7). After 5 hours, the concentration of methylparaben on the receiver side was measured. […] As will be apparent from the results, surfactin suppressed the skin penetration of skin-irritating substances.
One (donor side) of two chambers separated by a hairless mouse skin was filled with a cosmetic having the composition described in Table 6 and the other (receiver side) was filled with a phosphate buffer solution (pH 7). After 5 hours, the concentration of methylparaben on the receiver side was measured.
One (donor side) of two chambers separated by a hairless mouse skin was filled with a cosmetic having the composition described in Table 14 and the other (receiver side) was filled with a phosphate buffer solution (pH 7). After 5 hours, the concentration of methylparaben on the receiver side was measured.

SMILES: CCCCCCCCCCCCOS(=O)(=O)[O-].[Na+] [SDS, sodium dodecylsulfate, reference compound]
- Concentration of surfactant at 50% cytotoxicity [1]: 0.2%

SMILES: COC(=O)c1ccc(O)cc1 [0.1% Methylparaben, Methylparaben]
- Concentration of methylparaben of receiver [2]: 5.7 ppm
